In patent US20220306622A1, “SALT AND CRYSTAL FORM OF MTORC1/2 DUAL KINASE ACTIVITY INHIBITOR AND PREPARATION METHOD THEREFOR” (MEDSHINE DISCOVERY INC., priority 2019, published 2022):
Entries after “also recorded” stand apart in the source; their conditions may differ. Values belong to the compound of their own block, whether it stands above or below them.

Assays:
[1] = Dynamic vapor sorption (DVS) hygroscopicity study; assay type: physicochemical; conditions: 25.6° C. and 80% RH
Description: Instrument model: SMS DVS Advantage dynamic vapour adsorbent device
Test conditions: taking the sample (10-15 mg) and putting it into a DVS sample tray for test.
Detailed DVS parameters are as follows:
Balance: dm/dt=0.01%/min (minimum: 10 min, maximum: 180 min)
RH(%) test step range: 0%-90%-0% RH (%)
The evaluation of moisture absorption is classed as follows:
DVS Advantage dynamic vapour adsorbent device

[2] = Solid stability test under long-term and accelerated conditions (XRPD); assay type: physicochemical
Description: Each sample was put into a double-layer LDPE Bag with each layer buckled and sealed respectively, and then the LDPE Bag was put into an aluminum foil bag and heat sealed. The samples were investigated for XRPD under the conditions of 25° C./60% RH (14 bags), 30° C./65% RH (10 bags) and 40° C./75% RH (10 bags). The test results were compared with the initial test results of 0 days.

[3] = test system: subcutaneous xenografts of human breast cancer MCF-7 cell; experiment: In vivo pharmacodynamic study, subcutaneous MCF-7 xenograft model; parameters: species or system nude BALB/c mice
Description: Experimental objective: to study the in vivo efficacy of the compound to be tested on subcutaneous xenografts of human breast cancer MCF-7 in nude BALB/c mice model.
Experimental animals: female BALB/C nude mice, 6-8 weeks old, weighing 18-22 g; Supplier: Shanghai Xipur Bikai Experimental Animal Co., Ltd.
Human breast cancer MCF-7 cells (ECACC, item number: 86012803) were cultured in monolayer in vitro. The culture conditions were EMEM (EBSS)+2 mM […]+1% Non Essential Amino Acids (NEAA) medium plus 10% fetal bovine serum, 100 U/mL penicillin and 100 μg/mL streptomycin, incubated in 5% CO2 incubator at 37° C. Cells were passaged through routine digestion using Trypsin EDTA twice a week. When the cell saturation was 80%-90% and the number reached the requirements, cells were collected, counted and inoculated. […]
The experimental index is used for investigating whether tumor growth is inhibited, delayed or cured. The tumor diameter was measured with a vernier caliper twice a week. […]
The antitumor effect of the compound was evaluated by TGI (%) or relative tumor proliferation rate T/C(%). […]
Relative tumor proliferation rate T/C (%): the calculation formula is as follows: T/C %=TRTV/CRTV (TRTV:RTV in treatment group; CRTV:RTV in negative control group). The relative tumor volume (RTV) is calculated according to the results of tumor measurement. […]

mTOR kinase = target: T1, mTOR kinase (Homo sapiens, UniProt P42345); experiment: mTOR kinase inhibitory activity in vitro (discoverx ligand-bead competition binding, qPCR)
T1 construct: purchased discoverx; host or cells: HEK-293
Description: This experiment was tested on discoverx, and all materials and methods were from discoverx.
1. The labeled mTOR kinase was stably expressed in HEK-293 cells.
2. Streptavidin magnetic beads were treated with biotinylated small molecule ligands for 30 minutes at room temperature to produce an affinity resin for kinase analysis;
3. The ligand beads were blocked with excess biotin and washed with buffer (1% bovine serum albumin, 20 […] of dithiothreitol) to wash off unbound ligands and nonspecifically bound ligands;
5. The test compound was dissolved in dimethyl sulfoxide;
6. All compounds used for measurement were dissolved in DMSO and then diluted directly to a concentration of 0.9%;
7. The solution was placed on 384 well polypropylene plates with a volume of 0.02 mL of each well;
8. The plate was shaked at room temperature for 1 hour;
9. The plate was washed with buffer (1× PBS, 0.05% Tween 20);
10. Affinity beads were resuspended in buffer (1× PBS, 0.05% Tween 20, 0.5 μM nonbiotin-affinity ligands) and incubated at room temperature for 30 minutes;
11. The kinase in eluent was measured for its concentration by qPCR.

[4] = Pharmacokinetic evaluation in plasma of mice (IV and PO); assay type: in vivo, BALB/C female mice; conditions: mouse
Description: The tested compound was mixed with 5% DMSO/95% 10% polyoxyethylene castor oil (Cremophor EL) followed by vortex and ultrasonic treatment to prepare 1 mg/mL approximate clear solution, which was filtered by microporous membrane before used. BALB/C female mice of 18 to 20 g were injected with the compound solution intravenously at a dose of 1 or 2 mg/kg. The tested compound was mixed with 1% Tween […], 90% aqueous solution followed by vortex and ultrasonic treatment to prepare 1 mg/mL approximate clear solution, which was filtered by microporous membrane before used. BALB/C female mice of 18 to 20 g were given the candidate compound solution orally at a dose of 2 or 10 mg/kg. Whole blood was collected for a certain time to prepare plasma. The medicament was analyzed for its concentration by LC-MS/MS, and the pharmacokinetic parameters were calculated by Phoenix winnonlin software (pharsight company).

MCF-7 cells = experiment: Cell proliferation inhibitory activity (Cell-Titer-Glo), MCF-7; assay type: cell-based, human
Description: (§1) Objective: the inhibitory activity of the compound to be tested was tested on cell proliferation.
(§2) Experimental principle: Luciferase in Cell-Titer-Glo reagent uses luciferin, oxygen and ATP as reaction substrates to produce oxidized luciferin and release energy in the form of light. Since ATP is required for luciferase reaction, the total amount of light produced by the reaction is directly proportional to the total amount of ATP in response to cell viability.
(§3) Cell lines: MCF-7 cell line (ATCC-CRL-22), HT-29 cell line (ATCC-HTB-38), OE21 (ECACC-96062201), NCI-N87 cell line (ATCC-CRL-5822)
(§4) Cell Titer-Glo® Luminescent cell viability test kit (Promega #G7573)
(§5) According to the schematic diagram of cell seed plate, 384 or 96 well plate was seeded based on 1000 cells per well with a density of 25 μL per well, and the edge well was supplemented with 25 μL PBS, instead of cells.
(§6) (1) The mother liquor of the compound was 10 mM, and the compound was diluted with DMSO to obtain its initial concentration of 4 mM. The compound was added into the mother liquor plate with 9 μL per well. […]
(§7) The cell plate was taken from the incubator and balanced at room temperature for 30 minutes. […] After 10 minutes, the plate reading was performed on PerkinElmer envision with setting the […] reading time of 0.2 seconds.

N87 cells = experiment: Cell proliferation inhibitory activity (Cell-Titer-Glo), N87; assay type: cell-based
Description: as §1, §2, §3, §4, §5, §6, §7

hygroscopicity (classification) [1]: without hygroscopicity
ΔW % (hygroscopic weight gain) [1]: < 0.2%
Crystal form (XRPD) ([2]; 25° C./60% RH, 3 months): Crystal form A
Crystal form (XRPD) ([2]; 25° C./60% RH, 6 months): Crystal form A
Crystal form (XRPD) ([2]; 40° C./75% RH, 3 months): Crystal form A
Crystal form (XRPD) ([2]; 40° C./75% RH, 6 months): Crystal form A
Crystal form (XRPD) ([2]; Day 0 (initial)): Crystal form A
solid stability (in words) ([2]; high temperature, high humidity and strong light): good stability
Compound: C[C@H]1COCCN1c1nc(N2CCOC3(CC3)C2)nc2nc(-c3cccc(C(N)=O)c3)ccc12

Compound: CNC(=O)c1cccc(-c2ccc3c(N4CCOC[C@@H]4C)nc(N4CCOC[C@@H]4C)nc3n2)c1 [AZD2014, reference compound]
RTV (day 27) ([3]; 15 mg/kg): 0.85 ± 0.26

bioavailability ([4]; female, BALB/C, plasma, 10 mg/kg, oral administration): ~100%
Compound: C[C@H]1COCCN1c1nc(N2CCOC3(CC3)C2)nc2nc(-c3cccc(C(N)=O)c3)ccc12 [Compound of formula (I)]
mTOR kinase inhibitory activity (in words) (mTOR kinase): significant or even unexpected mTOR kinase inhibitory activity, which is better than the current clinical compound AZD2014
efficacy in MCF-7 Xenograft tumor model compared with AZD2014 (in words) ([3]; mouse, in vivo): equivalent to that of AZD2014; also recorded: comparable to AZD2014
pharmacokinetic properties compared with the reference compound (in words) [4]: the same or even better pharmacokinetic properties as the reference compound
inhibitory activity on proliferation of MCF-7 cells (in words) (MCF-7 cells): obvious inhibitory activity
inhibitory activity on proliferation of N87 cells (in words) (N87 cells): obvious inhibitory activity
